Results taken from PubChem BioAssay (NCI).
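Method: 48-hour compound exposure of cells in 96-well plates, five concentrations, linear interpolation of endpoints. TGI: concentration producing complete growth inhibition.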

Legend:
Assay in all cases: NCI-60 cell line screen, 48 h
A498 renal = test system: A498 renal
SK-MEL-5 melanoma = test system: SK-MEL-5 melanoma
SF-539 CNS = test system: SF-539 CNS
LOX IMVI melanoma = test system: LOX IMVI melanoma
RPMI-8226 leukemia = test system: RPMI-8226 leukemia
KM12 colon = test system: KM12 colon
NCI/ADR-RES ovarian = test system: NCI/ADR-RES ovarian
HCC-2998 colon = test system: HCC-2998 colon
DU-145 prostate = test system: DU-145 prostate
CCRF-CEM leukemia = test system: CCRF-CEM leukemia

Structure (SMILES) | TGI (A498 renal) | TGI (SK-MEL-5 melanoma) | TGI (SF-539 CNS) | TGI (LOX IMVI melanoma) | TGI (RPMI-8226 leukemia) | TGI (KM12 colon) | TGI (NCI/ADR-RES ovarian) | TGI (HCC-2998 colon) | TGI (DU-145 prostate) | TGI (CCRF-CEM leukemia)
O=[N+]([O-])/C=C/c1cn(CCCCCn2cc(/C=C/[N+](=O)[O-])c3ccccc32)c2ccccc12 | 3.86 µM | 3.46 µM | 5.28 µM | 1.51 µM | > 100 µM | 3.94 µM | 35.4 µM | 2.8 µM | 7.25 µM | –
O=c1c2c(nc3n1CCC3)sc1c(O)c(Br)ccc12 | 24.5 µM | 30.4 µM | 33 µM | 27.1 µM | 53.6 µM | 29.7 µM | – | 38 µM | – | 45.1 µM
Nc1c(N=Nc2ccc(-c3ccc(N=Nc4c(O)ccc5cc(S(=O)(=O)O)cc(S(=O)(=O)O)c45)cc3)cc2)c(S(=O)(=O)O)cc2cc(S(=O)(=O)O)c(N=Nc3ccccc3)c(O)c12 | > 100 µM | > 100 µM | > 100 µM | > 100 µM | > 100 µM | > 100 µM | > 100 µM | > 100 µM | – | > 100 µM
COc1ccc(-c2nc(-c3cnccn3)n(C3OC(CO)C(O)C(O)C3O)n2)cc1 (stereo not drawn) | – | > 100 µM | > 100 µM | > 100 µM | > 100 µM | > 100 µM | > 100 µM | > 100 µM | > 100 µM | > 100 µM
N#CCCC1(CCC#N)CCCCCCC(CCC#N)(CCC#N)C(O)C1O (stereo not drawn) | > 100 µM | > 100 µM | > 100 µM | > 100 µM | – | > 100 µM | > 100 µM | > 100 µM | > 100 µM | –
CNc1ccc(S(=O)Nc2ccccc2)cc1 (stereo not drawn) | – | 91.1 µM | > 100 µM | > 100 µM | > 100 µM | > 100 µM | > 100 µM | > 100 µM | > 100 µM | > 100 µM
CCN(CC)CCCCC1CCN(CC(=O)N2c3ccccc3NC(=O)CC2C)CC1 (stereo not drawn) | > 100 µM | > 100 µM | > 100 µM | 47.6 µM | > 100 µM | > 100 µM | – | > 100 µM | – | > 100 µM
CC1(C)CCC2(C(=O)OC3OC(CO)C(O)C(O)C3O)CCC3(CO)C(=CCC4C5(C)CC(O)C(O)C(C)(C(=O)OC6OC(CO)C(O)C(O)C6O)C5CCC43C)C2C1 (stereo not drawn) | > 100 µM | > 100 µM | > 100 µM | > 100 µM | – | > 100 µM | > 100 µM | > 100 µM | > 100 µM | –
OC12CCCCCC1(N1CCOCC1)c1ccccc12 (stereo not drawn) | > 100 µM | > 100 µM | > 100 µM | > 100 µM | > 100 µM | > 100 µM | – | > 100 µM | – | > 100 µM
CCOc1ccc(-c2oc(/C=N/NS(=O)(=O)c3ccc(C)cc3)c([N+](=O)[O-])c2-c2ccc(OCC)cc2)cc1 | 41.4 µM | 21.2 µM | 30.7 µM | 12.6 µM | 5.12 µM | 25.3 µM | – | 31.1 µM | – | 8.04 µM
O=C(OCc1ccccc1C1CSCSC1)c1cc(C(=O)OCc2ccccc2C2CSCSC2)c(C(=O)OCc2ccccc2C2CSCSC2)cc1C(=O)OCc1ccccc1C1CSCSC1 | > 100 µM | > 100 µM | > 100 µM | > 100 µM | > 100 µM | > 100 µM | – | – | – | > 100 µM
COC(=O)c1c(OC)cc2cc3c(c(O)c2c1C)C(=O)C1(O)C(=O)C=C(OC)C(OC(=O)CC(C)N)=C1C3=O (stereo not drawn) | – | > 100 µM | > 100 µM | > 100 µM | 39.7 µM | 42.7 µM | > 100 µM | 87.9 µM | > 100 µM | 49.5 µM
Cc1cc(S(=O)(=O)O)c(NC(=O)c2oc3cc(O)ccc3c(=O)c2C)cc1Cl | – | > 100 µM | > 100 µM | > 100 µM | > 100 µM | > 100 µM | > 100 µM | > 100 µM | – | –
Cc1cc2occ(-c3ccc(Cl)cc3)c2c(=O)o1 | > 100 µM | > 100 µM | > 100 µM | > 100 µM | > 100 µM | > 100 µM | – | – | – | > 100 µM
Cc1ccc2c(c1)CC1(C2=O)[C@H](c2ccccc2)C2C(=O)c3ccc(C)cc3C2[C@H]1c1ccccc1 (stereo partly drawn) | > 100 µM | – | > 100 µM | > 100 µM | – | > 100 µM | – | > 100 µM | > 100 µM | > 100 µM
[N-]=[N+]=C(C(=O)C(=[N+]=[N-])C(=O)c1ccccc1)C(=O)c1ccccc1 | – | > 100 µM | > 100 µM | > 100 µM | > 100 µM | > 100 µM | > 100 µM | > 100 µM | > 100 µM | –
O=c1oc2ccc(Cl)cc2cc1-c1cn2ccsc2n1 | – | > 100 µM | > 100 µM | > 100 µM | > 100 µM | > 100 µM | > 100 µM | > 100 µM | > 100 µM | 78.3 µM
